Values after ≈ are worked out from the molar mass of the structure shown. Active and inactive are the calls of the source. The calls are words filed in the database; no cut-off is given here.
Key:
Escherichia coli [1] = test: Antibacterial activity against Escherichia coli XL1 assessed as bacterial growth inhibition at 30 uM by spectrophotometric method; format: functional; settings: read-out: GI
Bacillus subtilis [2] = test: Antibacterial activity against Bacillus subtilis 168 assessed as bacterial growth inhibition at 30 uM by spectrophotometric method; format: functional; settings: read-out: GI
[3] = target: T1, Cell division protein FtsZ (Escherichia coli K-12) (UniProt P0A9A6); test: Inhibition of Escherichia coli BL21 FtsZ assessed as inhibition of KCl-induced GTPase activity at 80 uM preincubated for 10 mins followed by KCl stimulation and measured after 10 mins by malachite green ammonium molybdate dye based spectroscopic analysis
T1 sequence (whole entry): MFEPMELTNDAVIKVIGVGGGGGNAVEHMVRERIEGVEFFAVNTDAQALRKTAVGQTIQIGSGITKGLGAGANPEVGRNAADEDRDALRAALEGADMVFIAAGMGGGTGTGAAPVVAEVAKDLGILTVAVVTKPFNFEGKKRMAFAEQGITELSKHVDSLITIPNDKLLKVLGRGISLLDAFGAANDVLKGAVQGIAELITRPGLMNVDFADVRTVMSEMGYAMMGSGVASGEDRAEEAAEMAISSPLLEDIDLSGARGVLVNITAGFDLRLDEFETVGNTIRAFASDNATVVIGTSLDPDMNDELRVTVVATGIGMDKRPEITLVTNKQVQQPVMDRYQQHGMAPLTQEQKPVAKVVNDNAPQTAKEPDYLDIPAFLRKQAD

[4] = target: T1, Cell division protein FtsZ (Escherichia coli K-12); test: Inhibition of KCl-induced Escherichia coli BL21 FtsZ polymerization assessed as decrease in FtsZ polymer thickness at 80 uM incubate for 1 hrs by […] staining based fluorescence microscopy
Bacillus subtilis [5] = test: Antibacterial activity against Bacillus subtilis 168 assessed as bacterial growth inhibition at 5 uM by spectrophotometric method; format: functional; settings: read-out: GI
HeLa [6] = test: Antiproliferative activity against human HeLa cells assessed as inhibition of cell proliferation incubated for 24 hrs by sulfo-rhodamine B assay; format: functional, cell-based
[7] = target: T2, Cell division protein FtsZ (Bacillus subtilis) (UniProt A5Z1V5); test: Binding affinity to Bacillus subtilis FtsZ assessed as intrinsic tryptophan quenching incubated for 30 mins by fluorescence analysis
T2 sequence (whole entry): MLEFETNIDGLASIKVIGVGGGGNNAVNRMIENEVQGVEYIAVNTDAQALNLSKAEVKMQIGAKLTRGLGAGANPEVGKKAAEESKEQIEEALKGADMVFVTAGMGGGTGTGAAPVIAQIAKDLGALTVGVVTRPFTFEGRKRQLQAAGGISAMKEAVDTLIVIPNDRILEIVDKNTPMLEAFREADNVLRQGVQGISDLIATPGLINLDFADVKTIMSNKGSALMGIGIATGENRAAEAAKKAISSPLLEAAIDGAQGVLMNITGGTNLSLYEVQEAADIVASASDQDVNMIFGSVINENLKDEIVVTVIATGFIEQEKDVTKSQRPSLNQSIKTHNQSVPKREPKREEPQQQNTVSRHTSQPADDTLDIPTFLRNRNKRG

Escherichia coli [8] = test: Antibacterial activity against Escherichia coli XL1 assessed as bacterial growth inhibition at 20 uM by spectrophotometric method; format: functional; settings: read-out: GI
Bacillus subtilis [9] = test: Antibacterial activity against Bacillus subtilis 168 assessed as fold increase in average cell length at 7 uM incubated for 4 hrs by fluorescent microscopy; format: functional
Bacillus subtilis [10] = test: Antibacterial activity against Bacillus subtilis 168 assessed as increase in average cell length at 7 uM incubated for 4 hrs in 45% of bacterial cells by fluorescent microscopy; format: functional
[11] = target: T2, Cell division protein FtsZ (Bacillus subtilis); test: Inhibition of Bacillus subtilis 168 FtsZ assessed as effect on nucleoid segregation at 7 uM for 4 hrs by immunostaining based fluorescent microscopy
Escherichia coli [12] = test: Antibacterial activity against Escherichia coli XL1 assessed as fold increase in average cell length at 80 uM incubated for 4 hrs in by fluorescent microscopy; format: functional
[13] = target: T1, Cell division protein FtsZ (Escherichia coli K-12); test: Binding affinity to Escherichia coli BL21 FtsZ assessed as hydrophobic probe ANS-FtsZ complex fluorescence quenching at 10 uM for 30 mins by fluorescence analysis
[14] = target: T1, Cell division protein FtsZ (Escherichia coli K-12); test: Inhibition of Escherichia coli BL21 FtsZ assessed as inhibition of KCl-induced GTPase activity at 5 uM preincubated for 10 mins followed by KCl stimulation and measured after 10 mins by malachite green ammonium molybdate dye based spectroscopic analysis; settings: time 20.0 min
[15] = target: T1, Cell division protein FtsZ (Escherichia coli K-12); test: Binding affinity to Escherichia coli BL21 FtsZ assessed as hydrophobic probe ANS-FtsZ complex fluorescence quenching at 80 uM for 30 mins by fluorescence analysis
HeLa [16] = test: Antiproliferative activity against human HeLa cells assessed as inhibition of cell proliferation at 200 uM incubated for 24 hrs by sulforhodamine B assay; format: functional; parameters: scale not given: the % may be the effect or the level left
[17] = target: T2, Cell division protein FtsZ (Bacillus subtilis); test: Inhibition of Bacillus subtilis 168 FtsZ assessed as decrease FtsZ ring at mid bacterial cells at 7 uM for 4 hrs by immunostaining based fluorescent microscopy
Escherichia coli [18] = test: Antibacterial activity against Escherichia coli XL1 assessed as bacterial growth inhibition at 200 uM by spectrophotometric method; format: functional; settings: read-out: GI
Bacillus subtilis [19] = test: Antibacterial activity against Bacillus subtilis 168 assessed as minimum inhibitory concentration by spectrophotometric method; format: functional
[20] = target: T1, Cell division protein FtsZ (Escherichia coli K-12); test: Binding affinity to Escherichia coli BL21 FtsZ assessed as hydrophobic probe ANS-FtsZ complex fluorescence quenching at 2 uM for 30 mins by fluorescence analysis
Escherichia coli [21] = test: Antibacterial activity against Escherichia coli XL1 assessed as bacterial growth inhibition at 300 uM by spectrophotometric method; format: functional; settings: read-out: GI
[22] = target: T1, Cell division protein FtsZ (Escherichia coli K-12); test: Inhibition of KCl-induced Escherichia coli BL21 FtsZ polymerization assessed as decrease in FtsZ polymer size at 80 uM incubate for 1 hrs by […] staining based fluorescence microscopy
Bacillus subtilis [23] = test: Antibacterial activity against Bacillus subtilis 168 assessed as bacterial growth inhibition at 20 uM by spectrophotometric method; format: functional; settings: read-out: GI
Tubulin (Homo sapiens) = Tubulin (Homo sapiens) (UniProt P68371+Q9H4B7+P0DPH7+P68366+Q13509+Q71U36+P04350+Q3ZCM7+P07437+P68363+Q9BQE3+Q6PEY2+Q13885+Q9BVA1+Q9BUF5); test: Inhibition of tubulin polymerization in human HeLa cells assessed as effect on interphase microtubule network at 80 to 150 uM for 24 hrs by […] staining based fluorescence microscopy; format: cell-based; settings: dose 80-150 µM
[24] = target: T1, Cell division protein FtsZ (Escherichia coli K-12); test: Binding affinity to Escherichia coli BL21 FtsZ assessed as hydrophobic probe ANS-FtsZ complex fluorescence quenching at 20 uM for 30 mins by fluorescence analysis
[25] = target: T1, Cell division protein FtsZ (Escherichia coli K-12); test: Inhibition of Escherichia coli BL21 FtsZ assessed as inhibition of KCl-induced GTPase activity at 20 uM preincubated for 10 mins followed by KCl stimulation and measured after 10 mins by malachite green ammonium molybdate dye based spectroscopic analysis; settings: time 20.0 min

- inhibition [3]: 21.9%
- inhibition [4]: Active
- IC50 (HeLa [6]): 110 µM
- Activity [7]: Dose-Dependent Effect
- Activity [11]: inactive
- Activity [13]: 35%
- inhibition [14]: 11.5%
- Activity [15]: 81%
- Activity [17]: Active
- MIC (Bacillus subtilis [19]): 30 µM (≈ 7.69 µg/mL)
- Activity [20]: 14%
- inhibition [22]: Active
- inhibition (Tubulin (Homo sapiens)): inactive
- Activity [24]: 45%
- inhibition [25]: 15.9%
Structure (SMILES): O=C1c2ccccc2C(=O)c2c(O)c(O)cc(O)c21 [PURPURIN]
- inhibition of growth at 30 µM (Escherichia coli [1]): 25.6%
- inhibition of growth at 30 µM (Bacillus subtilis [2]): 100%
- inhibition of growth at 5 µM (Bacillus subtilis [5]): 47%
- inhibition of growth at 20 µM (Escherichia coli [8]): 18.5%
- fold change (FC) (Bacillus subtilis [9]): 10
- Activity (Bacillus subtilis [10]): 10.1 um
- fold change (FC) (Escherichia coli [12]): 4
- Activity (HeLa [16]): 72%
- inhibition of growth at 200 µM (Escherichia coli [18]): 67.8%
- inhibition of growth at 300 µM (Escherichia coli [21]): 94.7%
- inhibition of growth at 20 µM (Bacillus subtilis [23]): 86%

Source: ChEMBL document CHEMBL5230157, “The natural anthraquinone dye purpurin exerts antibacterial activity by perturbing the FtsZ assembly” (Bioorg Med Chem, 2021)
